Experimental data published in patent US20030017497A1, “Peptide mimotopes of carbohydrate antigens” (priority 1998, published 2003).
“Also recorded” adds a separate entry of the source. Where two headings read alike, the source gives them in different places. Where no end group is shown, it is not given here.

Legend:
[1] = test system: anti-LeY monoclonal antibody 15.6 (BR15.6, 15.6A); test: ELISA reaction of MAb 15.6 (BR15-6A) with peptides; assay type: binding
Experimental: (§1) FIGS. 2A and 2B depict the reactivity of putative motifs by ELISA. […] Constant amounts of BR55-2 were incubates with increasing amounts of MAP peptides, and then reaction of free mAb with LeY was measured by ELISA. Data points reflect 50% inhibition at 2 μg/ml of peptide inhibitor as measured by reduction of O.D. values in ELISA.
(§2) For example, polyclonal antibodies raised against the motif YYRYD might cross-react with MCP and with LeY. […] To further determine the extent of cross-reactivity for these motifs, peptides were synthesized repeating the respective putative centralized motifs shown in Table 2. It is theorized that the repeating tract should adopt a helix configuration which emulates many extended carbohydrate structures. To evaluate the antigenic mimicry of motif forms, we synthesized respective multiple antigen peptides (MAP) forms for detection of a reactivity pattern with the anti-LeY monoclonal antibodies BR55-2, and 15.6 (also referred to as BR15.6) and the anti-ganglioside antibody ME361 (FIG. 2a). Significant reactive sequences in FIG. 2a correspond to 3 peptides,
(§3) BR55-2 and 15.6A show distinct binding properties for LeY expressing tumor cells. […] The general mimicry of the K1106, K1105 and K1107 peptides for Le antigens is further assessed by ELISA reactivity with the anti-SA-LeX monoclonal antibody FH-6 (FIG. 3). These peptides are also reactive with this antibody. […]

[2] = test system: anti-LeY monoclonal antibody BR55-2; test: ELISA reaction of MAb BR55-2 with peptides (MAP forms); assay type: binding; conditions: for binding of peptide to BR55-2 in ELISA: monovalent peptide; for ELISA reactivity of BR55-2 with MAP peptide: MAP peptide forms
Experimental: as §1, §2
(§4) BR55-2 and 15.6A show distinct binding properties for LeY expressing tumor cells. […] The general mimicry of the K1106, K1105 and K1107 peptides for Le antigens is further assessed by ELISA reactivity with the anti-SA-LeX monoclonal antibody FH-6 (FIG. 3). These peptides are also reactive with this antibody. The significance of this reactivity is that previous reports indicate that peptides might only be reactive with antibodies that isolate them and in fact it is expected that peptide mimotopes might be not true mimics of carbohydrates.

[3] = test system: anti-ganglioside antibody ME361; test: ELISA reaction of MAb ME361 with MAP peptides; assay type: binding; conditions: MAP peptide forms
Experimental: as §1, §2, §3

[4] = test system: BR55-2 binding to LeY-PAA; test: Inhibition of mAb BR55-2 binding to solid-phase LeY-PAA by soluble MAP peptides (ELISA); conditions: 20 times molar excess of MAP peptide
Experimental: as §1, §4

[5] = test system: anti-SA-LeX monoclonal antibody FH-6; test: ELISA reactivity of peptides with antibody FH-6; assay type: binding
Excerpt: FIG. 3 depicts the reactivity of the anti-sLex antibody FH-6 with MAP peptides.
as §4

HIV-1/3B isolate = test: HIV-1 cell free neutralization; assay type: cell-based; conditions: Balb/c anti-peptide sera
Excerpt: FIGS. 7A, 7B and 7C depict anti-peptide sera mediation of HIV-1 cell free neutralization.
Mannose, sialyl and histo-blood group related carbohydrate epitopes (particularly LeY) are found on the major envelope protein of the human immunodeficiency virus (HIV). Consequently, we examined the extent to which the anti-peptide sera could mediate HIV-1 cell free neutralization. We observed that sera from Balb/c and C57B1/6 mice immunized with P1 or P2, neutralized HIV-1/MN at final dilution's up to 1:64 (FIGS. 7a-c). FIG. 7a illustrates the neutralization of HIV-1/MN by anti-P1 and P2 sera from Balb/c mice. Normal human sera (NHS), as well as the anti-P3 sera, were ineffective at blocking syncytia formnation, whereas human α-HIV-1 sera from 4 different infected patients neutralize cell free virus at dilution's up to 1:64. Sera derived from C57B1/6 mice also followed this profile (FIG. 7b). The isolate specificity was further determined by cell free neutralization of the HIV-1/3B isolate (FIG. 7c).

OVAR-3 = test: Complement dependent cytotoxicity (CDC); assay type: cell-based, human
Excerpt: (§5) Anti-carbohydrate antibodies may mediate complement dependent cytotoxicity (CDC) better than cytotoxicity associated with various effector cells. Subsequently, we have initially examined CDC mediation of various sera raised either to peptides or against the multivalent LeY-PAA form. […] We examined the ability of the sera to mediate complement dependent cytotoxicity (CDC) of the SKBR3 and MCF7 human breast adenocarcinoma cell lines, the ovarian tumor cell line OVAR-3 and the human melanoma lines WM793 and SKMEL-28 compared to that of the LeY-PAA generated sera. Positive control antibodies were BR55-2 which mediates CDC of the adenocarcinoma lines, and ME361 which mediates killing of WM793. Negative controls were pre-immune sera, an irrelevant peptide immunogen (C1) and two peptides (G1 and G2) isolated from phage display that are reactive with ME361.

MCF-7 = test: Complement dependent cytotoxicity (CDC); assay type: cell-based, human
Excerpt: as §5

SKBR3 = test: Complement dependent cytotoxicity (CDC); assay type: cell-based, human
Excerpt: as §5

SKME1-28 = test: Complement dependent cytotoxicity (CDC); assay type: cell-based, human
Excerpt: as §5

WM793 = test: Complement dependent cytotoxicity (CDC); assay type: cell-based, human
Excerpt: as §5

[6] = ELISA with various synthetic carbohydrate subunit probes; assay type: binding
Experimental: To further evaluate the specificity of the anti-carbohydrate IgG fraction derived from proteosome-conjugate immunized mice, ELISA assays were performed with plates coated with various synthetic carbohydrate subunit probes (FIG. 5a). […] It was observed that the anti-peptide sera (1:100 titer) was reactive with respective carbohydrate probes above background binding. Preferences for antisera against the YPY motif include Fucα1-3GlcNAc representative of LeY, and Lex, the H type 1 structure Fucα1-2Galβ1-3GlcNAc representative of Leb, and the disaccharide Galb1-4Glc which is a major constituent bacterial LOS. […] The antisera reacted with both H type 1 and H type 2 (Fucα1-2Galβ1-4GlcNAc) structures, with the type 1 structure displaying slightly more activity. This may reflect interaction with the common Fucα1-2Gal structure found on type 1 and type 2 structures or functional groups that are shared within the common topography of these two chains.
In contrast to the proteosome-peptide conjugates, increased specificity for LeY is observed for the MAP forms (FIG. 5b). At 1:50 dilution, the LeY reactivity of the antisera is approximately 3 fold more reactive with LeY than with Leb, Lex-pentasaccharide, SLea, SLex. […] Considering the diminished reactivity against LeX which shares the Galβ1→4(Fucα1→3)GlcNAcβ1 component it would appear that a fraction of antibodies react with a conformational component of LeY, providing for its increased reactivity, or alternatively, the affinity for LeY is increased.
To further evaluate the specificity of the 1104 peptide we synthesized 1104 as a MAP form and immunized Balb/c mice, with QS-21 as adjuvant and examined its reactivity pattern with various Le synthetic probes by ELISA (FIG. 9). The utility of MAP peptides is in their apparent advantage as immunogens. […] However, the MAPS described above contain T cell epitopes within the peptide sequence. […] We have observed this trend with MAP peptides.
At 1:50 serum dilution (FIG. 9), we observed about the same level of reduced reactivity for Leb hexasaccharide, LeX-pentasaccharide, sLeX, Lea, and sLea, while higher levels of reactivity are observed for LeY and LeY constituents. […] This selective interaction sets apart reactivities between Leb and LeY, since reactivity is observed for the H type 1 constituent of Leb.

[7] = ELISA reactivity of sera of peptide-immunized mice with LeY and Leb; assay type: in vivo, Balb/c mice; conditions: anti-1104 MAP sera
Excerpt: The immunological presentation of the putative motifs, (i.e. short or longer peptides, presentation in a helix or beta bend, monovalent or multivalent (clustered forms)) might mimic overlapping epitopes on otherwise different carbohydrate structures. To test this idea, Balb/c mice were immunized with peptide-proteosome conjugates representative of the motifs YYPYD (SEQ ID NO: 6), and YYRYD (SEQ ID NO: 7) or the same peptides as MAP forms that are multiple repeats of the motifs administered with QS-21. Sera were collected 1 week after the last immunization, pooled and tested for reactivity with LeY and Leb. […] Superposition of LeY and Leb structures indicate that despite the change of glycosidic linkage from β1-3 to β1-4 in the type 1 and 2 chains, resulting conformational features of the respective sugar moieties are still shared forming a common topography. The only effective difference is the position of the N-acetyl and hydroxymethyl groups projected on opposite sides of the type 1 and 2 difucosylated structures.
Sera derived from immunization with the MAP peptides indicate that the IgM isotype is the predominate form, titering out to 1:2000 for the two carbohydrate forms, but displaying significant differences in reactivity for LeY and Leb that are accentuated at 1:100 and 1:500 titer (FIG. 4b). […]

[8] = target: anti-LeY monoclonal antibody BR55-2; test: competition ELISA: soluble MAP peptide against solid-phase LeY-PAA for BR55-2 (FIG. 2b)
[9] = OVAR-3, sera raised to the immunogen, final dilution 1:15
[10] = MCF-7, sera raised to the immunogen, final dilution 1:15
[11] = SKBR3, sera raised to the immunogen, final dilution 1:15
[12] = SKME1-28, sera raised to the immunogen, final dilution 1:15
[13] = WM793, sera raised to the immunogen, final dilution 1:15
[14] = anti-1104 MAP sera, 1:50 serum dilution

Molecule: APWLYAP (Novel Sequence) [reference compound]
- ELISA reactivity of 15.6 / BR15-6A with peptide [1]: negative
- binding of peptide to BR55-2 in ELISA [2]: negative

Molecule: APWLYGPA (Novel Sequence) [reference compound]
- binding of peptide to BR55-2 in ELISA [2]: does not bind

Molecule: GGGAPWLYGAPWLYGAPWLY [Peptide K61223, triple repeat of the APWLY motif]
- ELISA reactivity of 15.6 / BR15-6A with peptide [1]: not reactive
- ELISA reactivity of BR55-2 with MAP peptide [2]: not reactive; also recorded: little reactivity
- ELISA reactivity (O.D.) of ME361 with MAP peptide [3]: not reactive

Molecule: GGIYWRYDIYWRYDIYWRYD (Novel Sequence) [Peptide K61106]
- inhibition of BR55-2 binding to LeY [4]: 50%
- ELISA reactivity of BR55-2 with MAP peptide [2]: bound very well
- ELISA reactivity with FH-6 [5]: also reactive

Molecule: GGIYWRYDIYWRYDIYWRYD (Novel Sequence) [Peptide P2, elsewhere called YYRYD motif]
- neutralization of HIV-1/3B infection in vitro (HIV-1/3B isolate): effective in neutralizing
- averaged percent cytotoxicity (OVAR-3): 84%
- averaged percent cytotoxicity (MCF-7): 29%
- averaged percent cytotoxicity (SKBR3): 80%
- averaged percent cytotoxicity (SKME1-28): 13%
- averaged percent cytotoxicity (WM793): 9%

Molecule: GGIYYPYDIYYPYDIYYPYD (Novel Sequence) [Peptide K61105]
- ELISA reactivity of BR55-2 with MAP peptide [2]: reduces the recognition ability
- ELISA reactivity with FH-6 [5]: also reactive

Molecule: GGIYYPYDIYYPYDIYYPYD (Novel Sequence) [Peptide P1]
- neutralization of HIV-1/3B infection in vitro (HIV-1/3B isolate): effective in neutralizing
- averaged percent cytotoxicity (OVAR-3; [9]): 89%
- averaged percent cytotoxicity (MCF-7; [10]): 66%
- averaged percent cytotoxicity (SKBR3; [11]): 90%
- averaged percent cytotoxicity (SKME1-28; [12]): 10%
- averaged percent cytotoxicity (WM793; [13]): 9%

Molecule: GGYYRYDIYYRYDIYYRYD (Novel Sequence) [Peptide K61107]
- inhibition of BR55-2 binding to LeY [4]: 50%
- ELISA reactivity of BR55-2 with MAP peptide [2]: bound very well
- less reactivity with Lea and Sialyl-Lex ([6]; antisera to MAP, 1:50 dilution): about 1 fold
- ELISA reactivity with FH-6 [5]: also reactive

Molecule: GVVWRYTAPVHLGDG [Peptide G1, GVVWRYTAPVHLGDG]
- averaged percent cytotoxicity (OVAR-3): 9%
- averaged percent cytotoxicity (MCF-7): 20%
- averaged percent cytotoxicity (SKBR3): 10%
- averaged percent cytotoxicity (SKME1-28): 75%
- averaged percent cytotoxicity (WM793): 90%

Molecule: IMILLIFSLLWFGGA (Novel Sequence) [Peptide B1]
- serum reactivity with Fucal-3GlcNAc [6, 14]: best reactivity
- serum reactivity with Fucα1-4GIcNAc [6, 14]: significantly reduced reactivity
- serum reactivity with Galβ1-3Gal [6, 14]: Minimal binding
- increase in reactivity for LeY over Leb [7]: three to fold increase
- isotype of anti-peptide sera [7]: predominately of IgM isotype
- ELISA reactivity with FH-6 [5]: does not react
- averaged percent cytotoxicity (OVAR-3; [9]): 85%
- averaged percent cytotoxicity (MCF-7; [10]): 70%
- averaged percent cytotoxicity (SKBR3; [11]): 90%
- averaged percent cytotoxicity (SKME1-28; [12]): 10%
- averaged percent cytotoxicity (WM793; [13]): 10%

Molecule: LDVVLAWRDGLSGAS [Peptide G2, LDVVLAWRDGLSGAS]
- averaged percent cytotoxicity (OVAR-3): 11%
- averaged percent cytotoxicity (MCF-7): 15%
- averaged percent cytotoxicity (SKBR3): 13%
- averaged percent cytotoxicity (SKME1-28): 87%
- averaged percent cytotoxicity (WM793): 90%

Molecule: GGIYWRYDIYWRYDIYWRYD (also: multiple antigen peptide (MAP) form, branches and core not given here) [K61106 MAP peptide …]
- molar excess giving 50% inhibition (times molar excess) [8]: 20

Molecule: GGYYRYDIYYRYDIYYRYD (also: multiple antigen peptide (MAP) form, branches and core not given here) [K61107 MAP peptide …]
- molar excess giving 50% inhibition (times molar excess) [8]: 20
